The record followed here is US5607544A, “Process and agent for the oxidative bleaching of wood pulp and for deinking waste paper” (BK Ladenburg GmbH fur Chemische Erzeugnisse, priority 1994, dated 1997).

Structures are written as SMILES.

The subject of data set [1] is catalase. The experiment in a line: Catalase test: pressure increase after hydrogen peroxide addition to deinking process water of a paper factory. Conditions: 0.1% hydrogen peroxide. Type of data set: biochemical. The procedure: (§1) The catalase test depends upon the measurement of the increase of the pressure in an airtight-closed vessel after the introduction of 0.1% hydrogen peroxide. With increasing concentration of catalase in a sample, the pressure to be measured increases correspondingly. The pressure is given as an electric signal in relative units (mV). The pressure increase is measured after 10 minutes.

The target of data set [2] is T1, enzyme catalase (No. C10 Sigma catalogue) (Bos taurus, UniProt P00432).
T1 construct: purchased Sigma C10
T1 sequence (P00432 2-527 limits assumed): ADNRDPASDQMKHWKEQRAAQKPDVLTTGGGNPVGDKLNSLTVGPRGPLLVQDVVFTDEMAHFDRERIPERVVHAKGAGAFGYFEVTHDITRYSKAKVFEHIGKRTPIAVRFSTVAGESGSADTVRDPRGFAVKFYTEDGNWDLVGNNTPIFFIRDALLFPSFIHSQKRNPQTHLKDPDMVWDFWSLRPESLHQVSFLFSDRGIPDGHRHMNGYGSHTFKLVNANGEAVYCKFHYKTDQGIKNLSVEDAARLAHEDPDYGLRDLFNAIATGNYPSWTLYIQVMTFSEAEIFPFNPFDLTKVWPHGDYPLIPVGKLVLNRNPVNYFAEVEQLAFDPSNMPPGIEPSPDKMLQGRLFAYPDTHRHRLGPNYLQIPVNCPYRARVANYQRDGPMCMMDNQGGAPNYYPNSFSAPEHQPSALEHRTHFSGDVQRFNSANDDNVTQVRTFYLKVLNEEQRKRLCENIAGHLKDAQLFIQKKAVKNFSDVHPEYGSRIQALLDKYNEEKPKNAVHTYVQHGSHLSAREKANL
The experiment in a line: Action on the pure enzyme catalase, absorption decrease at 240 nm. Type of data set: biochemical. As for the experimental part:
phosphate buffer 0.05M, pH 7.0 (K2 HPO4 : 8.7 g/l; KH2 PO4 : 6.8 g/l)
enzyme catalase (No. C10 Sigma catalogue)
substrate hydrogen peroxide (30%).
Dissolve catalase in 0.05M phosphate buffer.
Concentration: 50 sigma units per ml of buffer.
Dissolve 0.1 ml 30% hydrogen peroxide in 50 ml of 0.05M phosphate buffer (control) or in 50 ml phosphate buffer which contains the stabiliser (substrate). Measure the absorption at 240 nm. The result must lie between 0.550 and 0.520. Possibly dilute the solution or add more hydrogen peroxide thereto.
2.9 ml of solution B are placed in a quartz cuvette and subsequently mixed with 0.1 ml of solution A. The absorption at 240 nm should, at the beginning of the measurement, amount to approximately 0.450. The time needed for the decrease of the absorption at 240 nm from 0.450 to 0.400 is determined. This time corresponds to the conversion of 3.45 μmol hydrogen peroxide in 3 ml of sample volume.
(sigma units total)=3.45: time (minutes calculating back to active sigma units 1 sigma unit reacts 1.0 μmol hydrogen peroxide per minute (at pH 7.0; 25° C.).

Data set [3] can be described thus: Laboratory deinking experiment with process water 1 (whiteness, flotate, ash, residual peroxide). Conditions: 0 sample 15.7%. The procedure:
Into 1 liter of water of 30° dH (tap water) are introduced:
(§2) Into the pulper (2800 r.p.m.) are introduced 50 g of atro waste paper and the chemical solution is subsequently introduced. The pulping time is 10 minutes. After ending of the brushing out time, the paper slurry is shaken out into a glass beaker, stirred up with a commercially available ultrasonic disperser and the pH value determined.
The pH value is 9.5±0.2. 100 ml are taken from the brushed out suspension and a sheet formed (degree of whiteness and brightness before the flotation).
(§3) The remaining fibre material is placed for 110 minutes in a waterbath with a temperature of 50° C. After the residence time, it is dispersed with a disperser for 1 minute at 10,000 r.p.m. The paper slurry is emptied into a flotation cell which is filled with water with a temperature of 50° C. There is thereby adjusted a material density of 0.8% (pH value 8.5). Air is introduced into the cell at a rate of 60 liters/hour and the speed of stirring is 1000 r.p.m. The flotation time is 10 minutes, foam being skimmed off manually. After the flotation is ended, acidification is carried out with sulphuric acid to pH 5 and sheets are formed.
The brightness and degree of whiteness are measured on the front and rear side and the average value determined.
R 457: reflection factor at 457 nm wavelength
Y/C: standard type of light C/1931
Process water 1 was used. The statements of percentage refer to the commercial product and the residual peroxide was determined by a titration method.

The nature of data set [4]: Flotation experiment in tap water without waterglass (stability of hydrogen peroxide). As to conditions: no waterglass; for residual peroxide: 0 sample 15%. As for the experimental part: as §2, §3
In the case of this experiment, working was analogous to Example 3 but tap water was used instead of process water. […] At the same time, in the case of this experiment, the addition of waterglass as stabiliser is omitted.

In data set [5] the test system is catalase. Description: Pressure increase after hydrogen peroxide addition to process water 3 (rate of decomposition of peroxide). It is filed as biochemical. As to conditions: 400 ppm referred to process water volume, 0.1% hydrogen peroxide, after 10 minutes, ambient temperature, 0 sample 9.8. The procedure: as §1
As sample, there was used process water 3 and worked up analogously to Example 1. After the addition of 0.1% hydrogen peroxide (referred to 100% hydrogen peroxide), there was measured the pressure increase in relative pressure units (in mV) after 10 minutes. The measurement took place at ambient temperature.

Data set [6] is described as follows: Residual peroxide content by iodometric titration in deinking process water samples. The source says: The measurement of the residual peroxide content took place by iodometric titration.
The initial peroxide content corresponds to 100% (=0.1% hydrogen peroxide (100%)).

Setting [7] is: 400 ppm active substance, pressure increase after 10 minutes, comparison sample without additive 9.8.

Turning to `N#CC(Br)(Br)C(N)=O` [DBNPA, 2,2-dibromo-3-nitrilopropionamide], in the data set on catalase [1] (setting [7]), the “pressure in relative units” value is greater than 9.0 mV.

As to `N#CSCSC#N` [MBT, methylene bisthiocyanate], the “pressure in relative units” value in the data set on catalase [1] (setting [7]) turned out to be 6.2 mV.

For `CNC(=S)S` [MDTCMA, monomethylammonium monomethyl dithiocarbamate], the “pressure in relative units” value with catalase [1] (setting [7]) was greater than 9.0 mV.

Take `OCl` [Sodium hypochlorite]: in data set [2] (solution B (hydrogen peroxide in phosphate buffer)), the “action on the pure enzyme catalase (in words)” value is on record as “reacts in solution B with hydrogen peroxide with decomposition before catalase can be added”.

In the case of `OC[P+](CO)(CO)CO` [THPS, tetrakishydroxymethylphosphonium sulphate], the “pressure in relative units” value with catalase [1] (setting [7]) is listed as greater than 9.0 mV.

`O=CCCCC=O` [glutaraldehyde]: testing at 0.5 ppm in data set [2] (0.5 ppm, pH 7.0) gave an inhibition of 6%. Besides, 2.5 ppm produced 9% inhibition in data set [2] (2.5 ppm, pH 7.0). Also, at 5 ppm the inhibition in data set [2] (5 ppm, pH 7.0) was 11%.

In the case of `CNC(=S)S` [metamsodium, sodium monomethyldithiocarbamate], the “pressure in relative units” value in the data set on catalase [1] (setting [7]) is reported as 5.0 mV.

Consider `O=C(C(Cl)=NO)c1ccc(O)cc1` [paraclox, 2-oxo-2-(4-hydroxyphenyl)-acethydroximic acid chloride], for which the residual peroxide in data set [3] (paraclox 0.02%) is on record as 21.4%; in data set [3] (paraclox 0.04%), 28.5%; in data set [3] (paraclox 0.08%), 49.7%; in data set [4] (paraclox 0.02%) it was 34.0%; in data set [4] (paraclox 0.04%), 41.0%; in data set [4] (paraclox 0.08%) it was 52.4%. Further, the inhibition at 0.2 ppm in data set [2] (0.2 ppm, pH 7.0) was determined as 0%. In data set [2] (1 ppm, pH 7.0), this molecule displayed an inhibition at 1 ppm of 16%. This molecule also registered an inhibition at 2 ppm in data set [2] (2 ppm, pH 7.0) of 63%. Besides, the “pressure in relative units” value is 4.2 mV in the data set with catalase [1] (10 ppm active substance, after 10 minutes); 0.5 mV in the data set with catalase [1] (100 ppm active substance, after 10 minutes); 0.2 mV in the data set with catalase [1] (setting [7]). Moreover, the “stabilising action on the peroxide (in words)” value in data set [4] is on record as “very good stabilising action on the peroxide”. Moreover, the “pressure increase in relative pressure units” value with catalase [5] amounted to 0.2 mV. Besides, the residual peroxide content is on record as 100% in data set [6] (Process water 1 (clear filtrate), 10 ppm, 0 min.); 55.4% in data set [6] (Process water 1 (clear filtrate), 10 ppm, 30 min.); 43.1% in data set [6] (Process water 1 (clear filtrate), 10 ppm, 60 min.); 33.8% in data set [6] (Process water 1 (clear filtrate), 10 ppm, 90 min.); 26.9% in data set [6] (Process water 1 (clear filtrate), 10 ppm, 120 min.); 100% in data set [6] (Process water 1 (clear filtrate), 100 ppm, 0 min.). For the same molecule, the residual peroxide content in data set [6] (Process water 1 (clear filtrate), 100 ppm, 30 min.) is listed as 95.4%; in data set [6] (Process water 1 (clear filtrate), 100 ppm, 60 min.), 87.7%; in data set [6] (Process water 1 (clear filtrate), 100 ppm, 90 min.) it was 87.7%; in data set [6] (Process water 1 (clear filtrate), 100 ppm, 120 min.), 86.1%; in data set [6] (Process water 2 (drum 1), 2 ppm, 0 min.) it was 100%; in data set [6] (Process water 2 (drum 1), 2 ppm, 30 min.) it was 3.6%. The residual peroxide content in data set [6] (Process water 2 (drum 1), 2 ppm, 60 min.) came out at 0%; in data set [6] (Process water 2 (drum 1), 2 ppm, 90 min.), 0%; in data set [6] (Process water 2 (drum 1), 2 ppm, 120 min.) it was 0%; in data set [6] (Process water 2 (drum 1), 20 ppm, 0 min.), 100%; in data set [6] (Process water 2 (drum 1), 20 ppm, 30 min.) it was 62.1%; in data set [6] (Process water 2 (drum 1), 20 ppm, 60 min.) it was 56.8%. For the same molecule, the residual peroxide content in data set [6] (Process water 2 (drum 1), 20 ppm, 90 min.) is given as 50.8%; in data set [6] (Process water 2 (drum 1), 20 ppm, 120 min.), 47%.

The inhibition is the drop in the measured response relative to a control, in per cent. Low values mean little suppression, high ones strong suppression.
